Reference: ChEMBL document CHEMBL1201862, “PubChem BioAssay data set” (2004)
Calls of active or inactive are those of the source.

Legend:
[1] = target: Protein-tyrosine kinase 2-beta (Homo sapiens, UniProt Q14289);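 also: potency of inhibitors of PYK2 kinase phosphorylation of poly-GT substrate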
Cytochrome P450 3A4 = Cytochrome P450 3A4 (Homo sapiens, UniProt P08684);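 also: CYP3A4 tested as one member of a cytochrome P450 panel screen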
Cytochrome P450 2C19 = Cytochrome P450 2C19 (Homo sapiens, UniProt P33261); assay: Cytochrome panel assay with activity outcomes. Panel member name: p450-cyp2c19 Compounds with AC50 equal or less than 10 uM are considered active; assay type: functional; conditions: read-out: AC50
Prothrombin = Prothrombin (Homo sapiens, UniProt P00734); assay: Thrombin 1536 HTS Dose Response Confirmation. [Related pubchem assays: 1046 (Thrombin 1536 HTS; hits were confirmed in this assay)]; assay type: functional
[2] = target: T1, Lysosomal acid glucosylceramidase (Homo sapiens, UniProt P04062); assay: Dose response cell-based high throughput screening assay to identify enhancers of beta-glucosidase activity. [Related pubchem assays: 784 ]; assay type: functional
T1 sequence (P04062 whole entry): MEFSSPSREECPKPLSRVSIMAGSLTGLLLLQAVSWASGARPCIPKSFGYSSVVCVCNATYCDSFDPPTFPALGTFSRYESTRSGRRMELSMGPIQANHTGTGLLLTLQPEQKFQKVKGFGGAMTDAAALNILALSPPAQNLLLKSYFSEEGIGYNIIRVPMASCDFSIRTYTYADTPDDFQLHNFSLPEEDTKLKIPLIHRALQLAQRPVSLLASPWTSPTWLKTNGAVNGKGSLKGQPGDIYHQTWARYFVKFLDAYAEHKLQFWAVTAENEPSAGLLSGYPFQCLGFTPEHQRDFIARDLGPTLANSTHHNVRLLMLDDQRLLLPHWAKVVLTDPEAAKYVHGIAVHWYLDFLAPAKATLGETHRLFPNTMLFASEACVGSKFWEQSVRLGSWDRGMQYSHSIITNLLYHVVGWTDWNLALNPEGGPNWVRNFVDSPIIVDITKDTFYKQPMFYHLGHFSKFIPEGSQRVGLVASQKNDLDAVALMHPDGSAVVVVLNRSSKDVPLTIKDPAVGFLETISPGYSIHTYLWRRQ

[3] = target: Heat shock protein HSP 90-alpha (Homo sapiens, UniProt P07900); assay: Luminescence-based dose response biochemical high throughput screening assay for inhibitors of the Heat Shock Protein 90 (HSP90). [Related pubchem assays: 1831 (Summary AID.), 1846 (Confirmation screen.), 1789 (Primary screen.)]
[4] = target: T2, Luciferin 4-monooxygenase (Photinus pyralis, UniProt P08659); assay: inhibition of purified Photinus pyralis luciferase – biochemical, luminescence, dose response (AID 1891)
HT-1080 = assay: HT1080 cell viability loss – fluorescence readout (AID 620); assay type: functional, cell-based; conditions: Homo sapiens
[5] = Luminescence Cell-Based Dose Confirmation HTS to Identify Inhibitors of Platelet Dense Granule Release. [Related pubchem assays: 1663 (Primary HTS), 1678 (Summary of Project)]; assay type: functional
[6] = target: T2, Luciferin 4-monooxygenase; assay: Counter Screen for Luciferase-based Assay Positives. [Related pubchem assays: 620, 618, 411 ]
Mucolipin-3 = target: T3, Mucolipin-3 (Homo sapiens, UniProt Q8TDD5); assay: Dose response cell-based high-throughput screening assay for agonists of the transient receptor potential channel ML3 (TRPML3). [Related pubchem assays: 1526, 1424, 1448 ]; assay type: functional
T3 sequence (Q8TDD5 whole entry): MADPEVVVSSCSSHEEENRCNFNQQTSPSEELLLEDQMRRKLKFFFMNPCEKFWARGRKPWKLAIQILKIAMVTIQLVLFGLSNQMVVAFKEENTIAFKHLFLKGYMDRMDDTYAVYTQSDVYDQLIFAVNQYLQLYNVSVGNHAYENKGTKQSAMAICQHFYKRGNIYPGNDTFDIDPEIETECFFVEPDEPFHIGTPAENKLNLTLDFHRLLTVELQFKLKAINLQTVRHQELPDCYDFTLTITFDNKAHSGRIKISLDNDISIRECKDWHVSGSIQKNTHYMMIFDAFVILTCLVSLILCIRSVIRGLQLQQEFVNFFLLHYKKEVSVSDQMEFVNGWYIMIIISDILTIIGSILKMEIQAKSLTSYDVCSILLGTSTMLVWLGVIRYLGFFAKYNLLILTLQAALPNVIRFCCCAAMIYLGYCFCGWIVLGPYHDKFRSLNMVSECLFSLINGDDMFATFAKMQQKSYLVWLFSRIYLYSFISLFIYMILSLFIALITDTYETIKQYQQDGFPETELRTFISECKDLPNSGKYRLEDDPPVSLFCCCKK

Ion channel NompC = Ion channel NompC (Danio rerio, UniProt Q7T1G6); assay: Fluorescence counterscreen assay for TRPML3 agonists: dose response cell-based high-throughput screening assay to identify agonists of the transient receptor potential channel N1 (TRPN1). [Related pubchem assays: 1526, 1424, 1448 ]; assay type: functional
[7] = OVCAR-3 cell viability loss – plate reader, dry powder samples, PAX8 inhibitor project, dose response (AID 743044); assay type: functional, cell-based
[8] = OVCAR8 cell viability loss – plate reader, dry powder samples, PAX8 project, dose response (AID 743197); assay type: functional, cell-based; conditions: OVCAR-8
[9] = IGROV1 cell killing – plate reader, dry powder samples, PAX8 inhibitor project, dose response (AID 743043); assay type: functional, cell-based; conditions: IGROV-1
Paired box protein Pax-8 = Paired box protein Pax-8 (Homo sapiens, UniProt Q06710); assay: PAX8 transcriptional activity inhibition in RMG-I – RMG-I cells, luciferase, cherry-pick, dose response (AID 687027); assay type: functional, cell-based;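 also: luciferase reporter driven by Pax8 target thyroperoxidase promoter measured by SteadyGlo luminescence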
Chain of Paired box protein Pax-8 (Q06710 whole entry): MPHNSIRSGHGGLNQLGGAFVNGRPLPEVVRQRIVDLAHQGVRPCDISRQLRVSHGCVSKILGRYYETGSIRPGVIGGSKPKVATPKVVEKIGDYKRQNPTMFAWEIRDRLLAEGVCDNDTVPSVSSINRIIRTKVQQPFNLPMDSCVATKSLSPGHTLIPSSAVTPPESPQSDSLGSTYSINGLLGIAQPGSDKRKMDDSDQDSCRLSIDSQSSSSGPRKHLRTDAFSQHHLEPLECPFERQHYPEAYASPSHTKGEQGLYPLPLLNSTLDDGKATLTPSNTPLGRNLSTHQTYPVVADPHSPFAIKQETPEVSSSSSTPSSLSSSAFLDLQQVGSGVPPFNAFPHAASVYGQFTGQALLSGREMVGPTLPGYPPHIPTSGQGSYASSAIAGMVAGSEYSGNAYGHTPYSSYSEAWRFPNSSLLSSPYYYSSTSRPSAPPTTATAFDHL

Chain of Ion channel NompC (Q7T1G6 whole entry): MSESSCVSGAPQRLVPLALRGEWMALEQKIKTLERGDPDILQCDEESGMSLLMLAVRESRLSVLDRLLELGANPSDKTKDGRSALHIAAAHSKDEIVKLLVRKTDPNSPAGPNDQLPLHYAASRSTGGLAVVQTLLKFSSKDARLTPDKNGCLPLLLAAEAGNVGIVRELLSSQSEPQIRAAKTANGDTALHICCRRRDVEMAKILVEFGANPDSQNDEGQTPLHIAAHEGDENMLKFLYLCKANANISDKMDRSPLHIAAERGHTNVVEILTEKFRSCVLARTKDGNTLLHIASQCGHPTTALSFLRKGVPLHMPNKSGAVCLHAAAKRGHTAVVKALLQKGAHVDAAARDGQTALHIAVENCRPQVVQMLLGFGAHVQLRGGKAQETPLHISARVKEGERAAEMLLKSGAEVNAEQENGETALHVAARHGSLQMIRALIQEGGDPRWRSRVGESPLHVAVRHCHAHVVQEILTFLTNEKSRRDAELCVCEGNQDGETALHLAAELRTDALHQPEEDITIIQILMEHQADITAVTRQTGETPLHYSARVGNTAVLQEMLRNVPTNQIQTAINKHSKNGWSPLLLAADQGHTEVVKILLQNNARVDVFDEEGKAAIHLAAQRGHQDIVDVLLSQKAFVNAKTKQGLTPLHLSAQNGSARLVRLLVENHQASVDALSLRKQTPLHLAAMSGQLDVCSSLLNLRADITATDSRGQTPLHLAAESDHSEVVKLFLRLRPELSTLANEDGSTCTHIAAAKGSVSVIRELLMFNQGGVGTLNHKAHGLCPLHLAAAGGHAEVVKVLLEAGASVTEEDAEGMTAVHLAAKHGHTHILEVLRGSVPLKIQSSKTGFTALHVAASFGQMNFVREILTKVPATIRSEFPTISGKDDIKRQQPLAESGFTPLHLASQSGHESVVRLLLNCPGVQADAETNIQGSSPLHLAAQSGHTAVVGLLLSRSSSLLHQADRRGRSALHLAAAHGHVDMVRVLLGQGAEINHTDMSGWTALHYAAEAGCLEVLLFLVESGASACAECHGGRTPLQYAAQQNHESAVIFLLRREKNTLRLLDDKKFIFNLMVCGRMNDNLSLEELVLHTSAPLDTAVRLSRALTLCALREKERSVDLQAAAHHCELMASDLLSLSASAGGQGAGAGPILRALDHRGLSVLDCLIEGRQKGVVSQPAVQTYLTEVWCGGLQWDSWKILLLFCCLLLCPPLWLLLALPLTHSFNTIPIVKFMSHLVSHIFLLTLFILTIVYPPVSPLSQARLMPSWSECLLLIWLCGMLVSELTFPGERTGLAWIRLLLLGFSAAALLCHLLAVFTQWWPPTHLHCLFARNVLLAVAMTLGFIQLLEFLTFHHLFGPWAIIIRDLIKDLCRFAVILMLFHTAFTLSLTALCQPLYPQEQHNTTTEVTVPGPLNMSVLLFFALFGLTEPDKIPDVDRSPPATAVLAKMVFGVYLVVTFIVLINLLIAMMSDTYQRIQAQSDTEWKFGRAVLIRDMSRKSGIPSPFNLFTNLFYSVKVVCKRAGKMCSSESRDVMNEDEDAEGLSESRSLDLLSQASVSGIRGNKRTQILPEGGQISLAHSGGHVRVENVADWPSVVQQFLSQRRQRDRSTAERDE
T2 sequence (P08659 whole entry): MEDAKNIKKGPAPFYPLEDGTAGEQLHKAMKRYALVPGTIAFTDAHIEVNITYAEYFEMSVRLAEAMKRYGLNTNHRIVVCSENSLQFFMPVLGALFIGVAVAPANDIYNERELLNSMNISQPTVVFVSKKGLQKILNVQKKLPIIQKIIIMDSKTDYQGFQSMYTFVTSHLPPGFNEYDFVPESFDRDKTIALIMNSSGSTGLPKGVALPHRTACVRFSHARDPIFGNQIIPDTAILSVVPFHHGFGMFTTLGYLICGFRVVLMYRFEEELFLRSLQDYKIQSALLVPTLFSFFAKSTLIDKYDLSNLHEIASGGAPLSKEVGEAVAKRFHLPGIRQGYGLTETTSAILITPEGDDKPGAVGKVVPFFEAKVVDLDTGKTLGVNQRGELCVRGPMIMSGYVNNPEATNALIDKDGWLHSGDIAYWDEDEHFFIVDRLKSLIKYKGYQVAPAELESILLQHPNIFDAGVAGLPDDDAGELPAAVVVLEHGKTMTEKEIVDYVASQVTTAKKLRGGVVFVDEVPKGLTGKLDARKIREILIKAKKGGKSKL
Chain of Protein-tyrosine kinase 2-beta (Q14289 whole entry): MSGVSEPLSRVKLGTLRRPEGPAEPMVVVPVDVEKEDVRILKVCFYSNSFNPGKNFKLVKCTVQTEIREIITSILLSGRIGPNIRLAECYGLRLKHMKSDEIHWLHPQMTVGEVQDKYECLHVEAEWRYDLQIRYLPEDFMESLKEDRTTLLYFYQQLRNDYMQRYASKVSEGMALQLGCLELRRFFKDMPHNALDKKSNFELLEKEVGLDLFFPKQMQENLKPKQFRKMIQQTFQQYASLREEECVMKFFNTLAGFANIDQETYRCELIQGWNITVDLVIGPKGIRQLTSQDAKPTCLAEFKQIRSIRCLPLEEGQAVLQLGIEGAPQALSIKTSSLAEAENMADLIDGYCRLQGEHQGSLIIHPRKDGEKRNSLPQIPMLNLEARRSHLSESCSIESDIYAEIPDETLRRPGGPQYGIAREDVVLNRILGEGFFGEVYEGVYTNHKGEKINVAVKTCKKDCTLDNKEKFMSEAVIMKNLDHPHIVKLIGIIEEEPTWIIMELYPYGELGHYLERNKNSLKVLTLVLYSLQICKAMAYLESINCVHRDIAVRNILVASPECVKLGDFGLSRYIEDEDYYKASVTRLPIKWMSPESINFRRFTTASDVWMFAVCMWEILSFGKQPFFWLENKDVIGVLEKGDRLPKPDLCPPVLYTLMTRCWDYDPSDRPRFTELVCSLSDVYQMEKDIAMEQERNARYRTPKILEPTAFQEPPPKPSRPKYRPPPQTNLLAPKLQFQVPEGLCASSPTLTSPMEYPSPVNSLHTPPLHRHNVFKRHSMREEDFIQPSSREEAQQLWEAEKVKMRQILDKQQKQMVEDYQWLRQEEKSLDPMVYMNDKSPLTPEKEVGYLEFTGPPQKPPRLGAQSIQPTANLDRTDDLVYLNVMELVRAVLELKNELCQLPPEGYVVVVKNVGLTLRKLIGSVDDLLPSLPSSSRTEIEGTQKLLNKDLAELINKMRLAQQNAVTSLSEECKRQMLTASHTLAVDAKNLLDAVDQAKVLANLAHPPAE
Chain of Cytochrome P450 3A4 (P08684 whole entry): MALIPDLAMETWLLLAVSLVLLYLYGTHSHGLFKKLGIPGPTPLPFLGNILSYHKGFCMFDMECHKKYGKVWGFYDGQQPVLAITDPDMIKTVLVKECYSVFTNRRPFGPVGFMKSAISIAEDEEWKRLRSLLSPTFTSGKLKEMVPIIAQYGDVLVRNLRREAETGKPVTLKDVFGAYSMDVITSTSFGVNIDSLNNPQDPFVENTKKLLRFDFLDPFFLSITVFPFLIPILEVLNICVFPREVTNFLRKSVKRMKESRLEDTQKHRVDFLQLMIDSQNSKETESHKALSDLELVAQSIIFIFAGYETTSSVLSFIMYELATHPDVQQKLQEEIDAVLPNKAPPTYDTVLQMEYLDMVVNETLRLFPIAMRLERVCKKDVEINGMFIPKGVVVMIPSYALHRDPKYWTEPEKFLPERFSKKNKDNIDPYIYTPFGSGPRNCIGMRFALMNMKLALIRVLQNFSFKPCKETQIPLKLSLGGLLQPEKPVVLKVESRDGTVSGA
Chain of Cytochrome P450 2C19 (P33261 whole entry): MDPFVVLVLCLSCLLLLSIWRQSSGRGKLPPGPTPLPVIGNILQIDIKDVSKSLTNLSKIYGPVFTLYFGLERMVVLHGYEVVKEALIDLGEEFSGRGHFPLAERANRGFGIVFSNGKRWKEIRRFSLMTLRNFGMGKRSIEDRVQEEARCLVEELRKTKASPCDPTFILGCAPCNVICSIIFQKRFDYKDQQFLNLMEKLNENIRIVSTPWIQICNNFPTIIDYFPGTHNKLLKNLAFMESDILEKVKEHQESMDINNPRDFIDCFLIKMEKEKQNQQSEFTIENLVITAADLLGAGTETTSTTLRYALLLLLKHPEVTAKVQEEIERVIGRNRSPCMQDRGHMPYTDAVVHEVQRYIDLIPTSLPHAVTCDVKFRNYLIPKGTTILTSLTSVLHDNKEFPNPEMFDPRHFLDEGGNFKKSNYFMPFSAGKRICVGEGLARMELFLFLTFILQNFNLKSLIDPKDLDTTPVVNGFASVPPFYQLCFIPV

Question: For `Cc1n[nH]c(C)c1N=Nc1cc(Cl)ccc1Cl`, which IC50 [1] is on record?
Answer: > 69.5 µM (not active)

Question: What about the AC50 (Cytochrome P450 3A4) of the same molecule?
Answer: 17.8 µM (inconclusive)

Question: And the AC50 (Cytochrome P450 2C19)?
Answer: 1.12 µM (inconclusive)

Question: For `Cc1cc(=O)oc2cc(OC(=O)c3ccco3)ccc12`, which IC50 (Prothrombin) is on record?
Answer: 0.949 µM (active)

Question: For `CCCn1c2c(c(O)c(C(=O)Nc3nccs3)c1=O)CCCC2`, which IC50 (Prothrombin) is on record?
Answer: > 50 µM (not active)

Question: With `O=C(CSc1nc(-c2ccccc2)nn1C(=O)c1ccccc1)Nc1cccc([N+](=O)[O-])c1` as the molecule, how does the IC50 (Prothrombin) read?
Answer: 1.39 µM (active)

Question: For `Cc1cc(NC(=O)CSc2nc3ccccc3[nH]2)no1`, which EC50 [2] is on record?
Answer: > 50 µM (not active)

Question: Which EC50 [2] does the source give for `CCN(CC)S(=O)(=O)c1ccc(NC(=O)CN(c2cccc(F)c2)S(C)(=O)=O)cc1` here?
Answer: > 50 µM (not active)

Question: With `Cc1nc(C)c(-c2csc(NCc3ccco3)n2)s1` as the molecule, how does the EC50 [2] read?
Answer: > 50 µM (not active)

Question: For `CC(C)(C)c1ccc(C(=O)c2c[nH]c(C(=O)O)c2)cc1`, which IC50 [3] is on record?
Answer: 0.469 µM (active)

Question: Which EC50 [4] does the source give for `COc1cccc(-c2nc(-c3ccccn3)no2)c1` here?
Answer: 4.73 µM (active)

Question: What about the EC50 (HT-1080) of the same molecule?
Answer: > 50 µM (not active)

Question: And the EC50 [5]?
Answer: 8.12 µM (active)

Question: And the EC50 [6]?
Answer: 6.27 µM (active)

Question: For `O=S(=O)(c1ccc2ccccc2c1)N1CCCCC1`, which EC50 (Mucolipin-3) is on record?
Answer: 15.1 µM (not active)

Question: And the EC50 (Ion channel NompC)?
Answer: > 29.9 µM (not active)

Question: For `Cc1ccc(S(=O)(=O)N2CCC(C)CC2)c([N+](=O)[O-])c1`, which EC50 (Mucolipin-3) is on record?
Answer: 3.83 µM (active)

Question: What about the EC50 (Ion channel NompC) of the same molecule?
Answer: > 29.9 µM (not active)

Question: Which EC50 (Mucolipin-3) does the source give for `COc1ccc(CCNC(=O)COc2ccc(N(C)S(=O)(=O)c3ccc(Cl)cc3)cc2)cc1` here?
Answer: 6.34 µM (active)

Question: What about the EC50 (Ion channel NompC) of the same molecule?
Answer: > 29.9 µM (not active)

Question: With `Cc1csc(NC(=O)c2cc3c(s2)CCCC3)n1` as the molecule, how does the EC50 (HT-1080) read?
Answer: 25.7 µM (active)

Question: What about the EC50 [6] of the same molecule?
Answer: 2.99 µM (active)

Question: For `C[C@@H]1CCCCO[C@H](CN(C)Cc2ccc(Cl)c(Cl)c2)[C@H](C)CN([C@@H](C)CO)C(=O)c2cc(NS(=O)(=O)c3ccc(Cl)cc3)ccc2O1`, which AC50 [7] is on record?
Answer: 24.6 µM (active)

Question: And the AC50 [8]?
Answer: 33.7 µM (active)

Question: And the AC50 [9]?
Answer: 49.7 µM (active)

Question: And the AC50 (Paired box protein Pax-8)?
Answer: 6.76 µM (active)

Question: With `Cc1ccc(S(=O)(=O)Nc2ccc3c(c2)C(=O)N([C@@H](C)CO)C[C@H](C)[C@H](CN(C)Cc2ccc(C(F)(F)F)cc2)OCCCC[C@H](C)O3)cc1` as the molecule, how does the AC50 [7] read?
Answer: 29.8 µM (active)

Question: What about the AC50 [8] of the same molecule?
Answer: 25.4 µM (active)

Question: What about the AC50 [9] of the same molecule?
Answer: 42.5 µM (active)

Question: What about the AC50 (Paired box protein Pax-8) of the same molecule?
Answer: 6.16 µM (active)

Question: Which IC50 [3] does the source give for `O=C(O)c1cc(N/N=C/c2cccnc2)ccc1Cl` here?
Answer: 5.72 µM (active)
